This is an account of results in ChEMBL document CHEMBL5154872 (Eur J Med Chem, 2022).

Values after ≈ are worked out from the molar mass of the structure shown.

The nature of data set [1]: Reactivation of mouse CTLL-2 cells pretreated with human PD-L1 assessed as increase in cell proliferation and measured by flow cytometry assay. The format is functional, cell-based. A general note: A flow cytometer gives signals particle by particle.
A short description of data set [2]: Stability in CD-1 mouse plasma assessed as half-ife at 10 uM. The data set is classed as ADME, cell-free.
In data set [3] the target is T1, Programmed cell death 1 ligand 1 (Homo sapiens, UniProt Q9NZQ7). Briefly: Binding affinity towards His-tagged recombinant human PD-L1 measured by MST dimerization binding assay. The format is single protein.
Data set [4] is described as follows: Solubility in PBS at pH 7.4. The data set is classed as physicochemical.
The nature of data set [5]: 1-Octanol/phosphate buffered-saline distribution coefficient, logD of compound at pH 7.4 measured after 2 hrs by LC-MS analysis. The data set is classed as physicochemical.
Data set [6] has as its target T1, Programmed cell death 1 ligand 1. The data set is described as follows: Binding affinity towards His-tagged recombinant human PD-L1 measured by MicroScale Thermophoresis (MST) assay.
For data set [7], the target named is Programmed cell death protein 1/Programmed cell death 1 ligand 1 (Homo sapiens, UniProt Q9NZQ7). The data set is described as follows: Inhibition of human PD-1/PD-L1 interaction in CHO-K1 cells transfected with PD-1-YFP/SHP-2-CFP and measured by FRET assay. The format is cell-based.
Chain of Programmed cell death protein 1/Programmed cell death 1 ligand 1 (Q15116 whole entry): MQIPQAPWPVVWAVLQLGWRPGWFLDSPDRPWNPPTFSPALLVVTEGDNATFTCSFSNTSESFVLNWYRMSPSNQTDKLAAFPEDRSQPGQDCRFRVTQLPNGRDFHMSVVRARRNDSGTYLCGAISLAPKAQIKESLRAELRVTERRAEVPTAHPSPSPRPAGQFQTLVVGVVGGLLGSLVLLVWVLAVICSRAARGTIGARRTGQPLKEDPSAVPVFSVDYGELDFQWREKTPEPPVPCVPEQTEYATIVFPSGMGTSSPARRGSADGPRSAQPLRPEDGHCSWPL
Chain of Programmed cell death protein 1/Programmed cell death 1 ligand 1 (Q9NZQ7 whole entry): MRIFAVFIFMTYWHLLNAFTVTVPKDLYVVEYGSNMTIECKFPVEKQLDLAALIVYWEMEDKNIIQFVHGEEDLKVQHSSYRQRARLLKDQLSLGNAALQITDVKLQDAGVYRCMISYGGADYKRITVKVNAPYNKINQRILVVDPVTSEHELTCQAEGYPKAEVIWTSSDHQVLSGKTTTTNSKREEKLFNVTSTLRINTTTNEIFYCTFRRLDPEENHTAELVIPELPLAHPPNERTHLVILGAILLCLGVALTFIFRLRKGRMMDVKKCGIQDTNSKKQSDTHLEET

T1 sequence (Q9NZQ7 whole entry): as above

One may read the IC50 as the concentration that inhibits the measured activity by half. The half-life is how long it takes for the measured level to halve. As usually defined, the Kd is the free concentration of one partner at which half of the binding sites on the other are occupied at equilibrium, for simple one-to-one binding. For orientation: solubility means the dissolved amount per volume that the medium holds. Higher therefore signals much dissolved substance. Usually logD stands for the decadic logarithm of the distribution of all forms, ionised or not, between an organic phase and buffer at a given pH. A lower logD goes with a more hydrophilic compound. With `CC1=NN(c2ccccn2)C(=O)C1`, the IC50 in data set [1] is 102 nM. Moreover, the half-life at 10 µM in data set [2] turned out to be 16 min. In data set [3], the Kd came out at 53 nM. Further, the solubility in data set [4] was > 200 µM. In data set [5], the logD at 2 h amounted to 0.85.

`COc1ccc(C2=NN(c3ccccn3)C(=O)C2)cc1`: the IC50 in data set [1] worked out at 75 nM. In addition, the half-life at 10 µM in data set [2] was found to be 12 min. In data set [3], the Kd is 2 nM. The solubility in data set [4] was 199 µM (≈ 53.2 µg/mL). The compound further came in with a logD at 2 h in data set [5] of 2.82.

As for `CCC1=NN(c2ccccn2)C(=O)C1`, the Kd in data set [6] was > 500000 nM.

Take `COc1ccccc1C1=NN(c2ccccn2)C(=O)C1`: the IC50 in data set [1] turned out to be 14 nM. In addition, in data set [2], the half-life at 10 µM came out at 10.9 min. In addition, the Kd in data set [3] turned out to be 46 nM. For the same compound, the solubility in data set [4] was found to be 80.9 µM (≈ 21.6 µg/mL). In addition, the pH-dependent lipophilicity (logD) at 2 h in data set [5] came to 2.56.

On to `Cc1ccccc1C1=NN(c2ccccn2)C(=O)C1`, for which, in data set [6], the Kd is > 500000 nM.

In turn, `O=C1CC(c2ccc(C(F)(F)F)cc2)=NN1c1ccccn1` came in with an IC50 in data set [7] of 143 nM. For the same compound, the Kd in data set [6] came out at 156 nM.

As for `O=C1CC(c2ccccc2Cl)=NN1c1ccccn1`, the Kd in data set [6] is > 500000 nM.

Consider `O=C1CC(c2ccccn2)=NN1c1ccccn1`, for which, in data set [6], the Kd was > 500000 nM.

Turning to `Cc1ccc(C2=NN(c3ccccn3)C(=O)C2)cc1`, the Kd in data set [6] came out at 1090 nM.

Turning to `O=C1CC(c2ccccc2F)=NN1c1ccccn1`, the Kd in data set [6] was > 500000 nM.

Turning to `O=C1CC(c2ccc(Cl)c(Cl)c2)=NN1c1ccccn1`, the Kd in data set [6] was found to be 584 nM.

As to `O=C1CC(C23CC4CC(CC(C4)C2)C3)=NN1c1ccc(Cl)cc1Cl`, the IC50 was determined as 9 nM in data set [7] and 54 nM in data set [1]. In data set [2], the half-life at 10 µM is 31 min. For the same compound, in data set [3], the Kd is 24 nM. In data set [4], this compound gave a solubility of 1.9 µM (≈ 0.69 µg/mL). In data set [5], this compound displayed a logD at 2 h of 4.28.

Consider `O=C1CC(c2cccc(Cl)c2)=NN1c1ccccn1`, for which the Kd in data set [6] was > 500000 nM.

For the compound `Cc1cccc(C2=NN(c3ccccn3)C(=O)C2)c1`, the Kd in data set [6] is > 500000 nM.

Turning to `CCCC1=NN(c2ccccn2)C(=O)C1`, the Kd in data set [6] is > 500000 nM.

As for `CCCCC1=NN(c2ccccn2)C(=O)C1`, in data set [6], the Kd is > 500000 nM.

For `CC(C)C1=NN(c2ccccn2)C(=O)C1`, the Kd in data set [6] is > 500000 nM.

As to `COc1ccc(C2=NN(c3ccccn3)C(=O)C2)cc1OC`, the IC50 was determined as 7.3 nM in data set [7] and 4.1 nM in data set [1]. Moreover, the half-life at 10 µM in data set [2] worked out at 30 min. The Kd in data set [3] turned out to be 0.7 nM; in data set [6] it was 1.19 nM. Also, the concentration in solution in data set [4] (solubility) was 183 µM (≈ 54.4 µg/mL). The compound also gave a logD at 2 h in data set [5] of 2.19.

In the case of `CC(C)(C)C1=NN(c2ccccn2)C(=O)C1`, the Kd in data set [6] was > 500000 nM.
